Measured values reported in PubChem BioAssay (NCI).
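Five compound concentrations were applied to cells in 96-well plates for 48 hours; endpoints were derived by simple linear interpolation of the resulting dose-response curve. GI50 = concentration required for 50% inhibition of growth. TGI denotes the concentration required for complete inhibition of growth.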

Columns and labels:
Assay in all cases: NCI-60 cell line screen, 48 h
K-562 leukemia = test system: K-562 leukemia
RPMI-8226 leukemia = test system: RPMI-8226 leukemia
COLO 205 colon = test system: COLO 205 colon
CCRF-CEM leukemia = test system: CCRF-CEM leukemia
HT29 colon = test system: HT29 colon
A498 renal = test system: A498 renal
CAKI-1 renal = test system: CAKI-1 renal
PC-3 prostate = test system: PC-3 prostate
NCI-H226 lung = test system: NCI-H226 lung
MOLT-4 leukemia = test system: MOLT-4 leukemia
SK-MEL-5 melanoma = test system: SK-MEL-5 melanoma
ACHN renal = test system: ACHN renal
KM12 colon = test system: KM12 colon
TK-10 renal = test system: TK-10 renal
MDA-MB-231 breast = test system: MDA-MB-231 breast
RXF 393 renal = test system: RXF 393 renal
HOP-62 NSCLC = test system: HOP-62 NSCLC
HS 578T breast = test system: HS 578T breast
SK-MEL-2 melanoma = test system: SK-MEL-2 melanoma
OVCAR-5 ovarian = test system: OVCAR-5 ovarian
SN12C renal = test system: SN12C renal
SNB-19 CNS = test system: SNB-19 CNS
SW-620 colon = test system: SW-620 colon
OVCAR-3 ovarian = test system: OVCAR-3 ovarian
SK-MEL-28 melanoma = test system: SK-MEL-28 melanoma
SNB-75 CNS = test system: SNB-75 CNS
MDA-MB-435 = test system: MDA-MB-435
HL-60(TB) leukemia = test system: HL-60(TB) leukemia
DU-145 prostate = test system: DU-145 prostate
HCC-2998 colon = test system: HCC-2998 colon
UO-31 renal = test system: UO-31 renal
BT-549 breast = test system: BT-549 breast
HCT-15 colon = test system: HCT-15 colon

`Nc1cc(-c2c[nH]c3ccc(F)cc23)nc2cc(-c3c[nH]c4ccc(F)cc34)nn12` was tested, and the GI50 (K-562 leukemia) was 2.92 µM, the TGI (K-562 leukemia) was > 100 µM and the GI50 (RPMI-8226 leukemia) was 3.05 µM. The TGI (RPMI-8226 leukemia) was > 100 µM, the GI50 (COLO 205 colon) was 1.74 µM and the TGI (COLO 205 colon) was 3.15 µM. The GI50 (CCRF-CEM leukemia) was 3.13 µM, the TGI (CCRF-CEM leukemia) was > 100 µM and the GI50 (HT29 colon) was 1.8 µM. It also gave a TGI (HT29 colon) of 3.31 µM, a GI50 (A498 renal) of 1.66 µM and a TGI (A498 renal) of 3.25 µM. It also gave a GI50 (CAKI-1 renal) of 2.03 µM, a TGI (CAKI-1 renal) of 5.29 µM and a GI50 (PC-3 prostate) of 2.11 µM. It also gave a TGI (PC-3 prostate) of 5.31 µM, a GI50 (NCI-H226 lung) of 2.28 µM and a TGI (NCI-H226 lung) of 5.52 µM. The GI50 (MOLT-4 leukemia) was 2.33 µM, the TGI (MOLT-4 leukemia) was 7.29 µM and the GI50 (SK-MEL-5 melanoma) was 1.84 µM. For the same compound, the TGI (SK-MEL-5 melanoma) was 3.28 µM, the GI50 (ACHN renal) was 1.88 µM and the TGI (ACHN renal) was 3.46 µM. For the same compound, the GI50 (KM12 colon) was 2 µM, the TGI (KM12 colon) was 4.26 µM and the GI50 (TK-10 renal) was 2.22 µM. The TGI (TK-10 renal) was 4.19 µM, the GI50 (MDA-MB-231 breast) was 1.85 µM and the TGI (MDA-MB-231 breast) was 3.49 µM. For the same compound, the GI50 (RXF 393 renal) was 1.88 µM, the TGI (RXF 393 renal) was 3.48 µM and the GI50 (HOP-62 NSCLC) was 2.06 µM. For the same compound, the TGI (HOP-62 NSCLC) was 5.85 µM, the GI50 (HS 578T breast) was 2.35 µM and the TGI (HS 578T breast) was 5.71 µM. For the same compound, the GI50 (SK-MEL-2 melanoma) was 14.6 µM, the TGI (SK-MEL-2 melanoma) was 35.3 µM and the GI50 (OVCAR-5 ovarian) was 1.83 µM. It also gave a TGI (OVCAR-5 ovarian) of 3.77 µM, a GI50 (SN12C renal) of 1.92 µM and a TGI (SN12C renal) of 3.73 µM. The GI50 (SNB-19 CNS) was 3.03 µM, the TGI (SNB-19 CNS) was 8.97 µM and the GI50 (SW-620 colon) was 1.78 µM. For the same compound, the TGI (SW-620 colon) was 3.3 µM, the GI50 (OVCAR-3 ovarian) was 1.75 µM and the TGI (OVCAR-3 ovarian) was 3.19 µM. For the same compound, the GI50 (SK-MEL-28 melanoma) was 1.83 µM, the TGI (SK-MEL-28 melanoma) was 3.33 µM and the GI50 (SNB-75 CNS) was 16.3 µM. The TGI (SNB-75 CNS) was 36.6 µM, the GI50 (MDA-MB-435) was 1.74 µM and the TGI (MDA-MB-435) was 3.39 µM. The GI50 (HL-60(TB) leukemia) was 1.94 µM, the TGI (HL-60(TB) leukemia) was 5.36 µM and the GI50 (DU-145 prostate) was 2.21 µM. It also gave a TGI (DU-145 prostate) of 4.73 µM, a GI50 (HCC-2998 colon) of 1.95 µM and a TGI (HCC-2998 colon) of 3.47 µM. It also gave a GI50 (UO-31 renal) of 1.68 µM, a TGI (UO-31 renal) of 3.45 µM and a GI50 (BT-549 breast) of 13.3 µM. The TGI (BT-549 breast) was 34.9 µM, the GI50 (HCT-15 colon) was 1.79 µM and the TGI (HCT-15 colon) was 3.69 µM.
